Blank lines part the entries; values can stand above or below the compound they belong to. The source made the active and inactive calls.
Legend:
[1] = target: T1, Apoptotic protease-activating factor 1 (Homo sapiens, UniProt O14727); assay type: functional
T1 sequence (O14727 whole entry): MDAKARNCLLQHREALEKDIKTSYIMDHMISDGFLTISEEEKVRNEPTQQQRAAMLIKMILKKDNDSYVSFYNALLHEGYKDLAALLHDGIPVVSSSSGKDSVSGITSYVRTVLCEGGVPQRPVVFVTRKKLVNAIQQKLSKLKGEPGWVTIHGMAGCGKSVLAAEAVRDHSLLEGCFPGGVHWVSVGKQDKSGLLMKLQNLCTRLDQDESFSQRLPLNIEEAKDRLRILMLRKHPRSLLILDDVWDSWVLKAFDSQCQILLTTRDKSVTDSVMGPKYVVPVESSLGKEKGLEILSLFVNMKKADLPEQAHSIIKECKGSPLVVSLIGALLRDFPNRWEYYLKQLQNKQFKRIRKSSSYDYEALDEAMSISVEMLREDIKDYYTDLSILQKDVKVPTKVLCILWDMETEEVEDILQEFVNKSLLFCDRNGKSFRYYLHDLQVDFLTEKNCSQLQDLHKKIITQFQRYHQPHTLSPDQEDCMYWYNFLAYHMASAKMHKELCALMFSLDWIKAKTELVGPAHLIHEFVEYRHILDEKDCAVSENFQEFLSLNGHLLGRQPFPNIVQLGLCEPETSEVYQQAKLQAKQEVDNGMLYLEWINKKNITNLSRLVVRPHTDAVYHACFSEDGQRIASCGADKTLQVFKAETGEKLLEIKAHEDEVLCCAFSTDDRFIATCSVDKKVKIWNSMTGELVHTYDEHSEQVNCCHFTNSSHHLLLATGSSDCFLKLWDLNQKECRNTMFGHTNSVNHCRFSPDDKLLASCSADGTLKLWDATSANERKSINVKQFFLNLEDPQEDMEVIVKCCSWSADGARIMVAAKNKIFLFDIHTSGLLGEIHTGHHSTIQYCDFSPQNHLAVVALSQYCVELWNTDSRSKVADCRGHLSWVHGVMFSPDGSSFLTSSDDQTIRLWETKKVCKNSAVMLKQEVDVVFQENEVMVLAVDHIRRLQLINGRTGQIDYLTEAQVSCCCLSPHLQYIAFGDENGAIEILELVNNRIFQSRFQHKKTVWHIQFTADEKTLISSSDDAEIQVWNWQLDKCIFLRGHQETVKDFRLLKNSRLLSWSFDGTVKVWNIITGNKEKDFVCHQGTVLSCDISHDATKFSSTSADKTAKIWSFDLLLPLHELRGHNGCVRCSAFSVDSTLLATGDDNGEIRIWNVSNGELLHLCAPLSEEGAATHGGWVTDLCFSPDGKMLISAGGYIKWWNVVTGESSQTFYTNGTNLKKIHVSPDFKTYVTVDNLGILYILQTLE

[2] = target: T2, Rac GTPase-activating protein 1 (Homo sapiens, UniProt Q9H0H5); experiment: blockers of MgcRacGAP-driven Rac1 GTP hydrolysis – biochemical, ADP Hunter fluorescence, primary and confirmatory, confirmation (AID 624330); assay type: functional
T2 sequence (Q9H0H5 whole entry): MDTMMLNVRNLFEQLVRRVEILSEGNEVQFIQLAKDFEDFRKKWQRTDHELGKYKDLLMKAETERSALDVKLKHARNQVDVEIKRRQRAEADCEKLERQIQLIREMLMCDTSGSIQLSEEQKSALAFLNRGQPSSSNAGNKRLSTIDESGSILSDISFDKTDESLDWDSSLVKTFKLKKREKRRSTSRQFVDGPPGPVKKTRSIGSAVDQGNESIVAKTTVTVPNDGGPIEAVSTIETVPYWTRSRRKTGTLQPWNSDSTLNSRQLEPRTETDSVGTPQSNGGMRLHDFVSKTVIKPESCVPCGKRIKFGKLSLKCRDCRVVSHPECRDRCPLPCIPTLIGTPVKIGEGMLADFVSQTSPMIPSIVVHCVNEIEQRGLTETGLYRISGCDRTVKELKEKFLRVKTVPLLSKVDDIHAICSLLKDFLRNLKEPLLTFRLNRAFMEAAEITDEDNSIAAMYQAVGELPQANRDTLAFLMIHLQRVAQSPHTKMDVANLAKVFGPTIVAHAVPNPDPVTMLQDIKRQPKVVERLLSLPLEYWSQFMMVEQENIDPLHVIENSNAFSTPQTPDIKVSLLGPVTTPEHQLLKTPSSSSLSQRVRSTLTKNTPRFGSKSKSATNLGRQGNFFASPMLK

[3] = target: T3, RNA-binding protein pos-1 (Caenorhabditis elegans, UniProt G5EF15); experiment: disruptors of C. elegans POS-1 RNA interaction – biochemical, fluorescence polarization, dose response (AID 1964);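 note: purified POS-1 fused to maltose binding protein made in E. coli; potency of compounds blocking POS-1 binding to fluorescent RNA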
T3 sequence (G5EF15 whole entry): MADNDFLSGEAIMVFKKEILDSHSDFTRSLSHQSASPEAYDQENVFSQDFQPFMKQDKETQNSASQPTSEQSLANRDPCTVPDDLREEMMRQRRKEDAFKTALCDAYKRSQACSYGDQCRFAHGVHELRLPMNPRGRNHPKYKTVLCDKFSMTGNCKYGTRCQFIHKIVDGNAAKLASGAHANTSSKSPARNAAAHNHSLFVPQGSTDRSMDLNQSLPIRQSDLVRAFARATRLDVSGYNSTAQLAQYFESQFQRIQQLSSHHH

[4] = target: T4, Tyrosyl-DNA phosphodiesterase 2 (Homo sapiens, UniProt O95551); experiment: potency against TDP2 phosphodiesterase activity – biochemical, epi absorbance, IC50, dose response (AID 743297)
T4 sequence (O95551 whole entry): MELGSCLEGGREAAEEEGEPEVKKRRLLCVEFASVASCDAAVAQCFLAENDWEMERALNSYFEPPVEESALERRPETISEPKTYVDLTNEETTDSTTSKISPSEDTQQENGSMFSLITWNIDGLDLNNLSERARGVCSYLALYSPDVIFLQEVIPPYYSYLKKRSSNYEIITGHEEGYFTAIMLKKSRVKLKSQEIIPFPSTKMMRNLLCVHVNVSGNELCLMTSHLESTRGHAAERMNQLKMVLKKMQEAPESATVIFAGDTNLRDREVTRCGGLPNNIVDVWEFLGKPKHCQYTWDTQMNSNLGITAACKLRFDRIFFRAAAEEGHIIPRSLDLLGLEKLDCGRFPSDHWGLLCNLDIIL

[5] = activation of miR-122 Renilla sensor silencing – cell-based, Huh7 psiCHECK-miR122, Renilla luciferase, cherry-picked, dose response (AID 651956); assay type: functional;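 note: huh7 hepatoma cells stably carrying a psiCHECK-2 miR-122 sensor plasmid; renilla luciferase signal reporting endogenous miR-122 activity after 48 h compound exposure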
[6] = viability loss in MITF-independent A375 cells – cell-based, CellTiter-Glo luminescence, dry powder, set 2, counter-screen for MITF inhibitor project, dose response (AID 624489); assay type: functional; conditions: A-375;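 note: actives are compounds lowering A375 viability meaning general cytotoxicity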
HEK293 = experiment: NOD2 signaling inhibitors in MDP-stimulated cells, cell-based, uHTS, luminescence (AID 2001); assay type: functional; conditions: Homo sapiens

IC50 [1]: 12.9 µM (active)
Structure (SMILES): O=C1NC(=S)N/C1=C/c1cc2c(cc1[N+](=O)[O-])OCO2

Structure (SMILES): Cc1ccc(NC(=O)C2=C(c3ccccc3)S(=O)(=O)CCS2(=O)=O)cc1
IC50 [2]: 97.4 µM (active)

Structure (SMILES): O=C(O)CSc1cc(NS(=O)(=O)c2ccc(Br)cc2)c2ccccc2c1O
EC50 [3]: 20.7 µM (active)
IC50 [4]: 37.2 µM (inactive)

Structure (SMILES): O=C(CC(O)(C(F)(F)F)C(F)(F)F)Nc1ccc(Cl)c(Cl)c1
AC50 [5]: 5.54 µM (active)

Structure (SMILES): O=C(CNc1cccc2ccccc12)N/N=C/c1ccc([N+](=O)[O-])o1
AC50 [6]: > 70 µM (inactive)
IC50 (HEK293): 11.5 µM (inactive)
